# Test system: MV-4-11 cells
# Experiment: Gene expression microarray analysis (Affymetrix PrimeView) and GSEA
# Format: cell-based, human
# Set-up: RFU PODN (11730768_x_at) / Fold change /veh PODN (11730768_x_at) / RFU LINC00158 (11744669_a_at) / Fold change /veh LINC00158 (11744669_a_at) / RFU DUSP10 (11751237_a_at) / Fold change /veh DUSP10 (11751237_a_at) / RFU ID3 (11757404_x_at) / Fold change /veh ID3 (11757404_x_at) / RFU PLEKHG5 (11737974_s_at) / Fold change /veh PLEKHG5 (11737974_s_at) / RFU LRRC4B (11730491_at) / Fold change /veh LRRC4B (11730491_at) / RFU GIMAP4 (11747438_a_at) / Fold change /veh GIMAP4 (11747438_a_at) / RFU KRT8 (11758183_x_at) / Fold change /veh KRT8 (11758183_x_at) / RFU CNN1 (11734310_a_at) / Fold change /veh CNN1 (11734310_a_at) / RFU VPS37D (11726825_at) / Fold change /veh VPS37D (11726825_at) / RFU C10orf10 (11716522_x_at) / Fold change /veh C10orf10 (11716522_x_at) / RFU KIR2DL2 /// KIR2DL4 /// KIR2DL5A /// KIR2DL5B /// KIR2DS1 /// KIR2DS2 /// KIR2DS3 /// KIR2DS4 /// KIR3DL3 /// KIR3DL3 /// KIR3DS1 (11738374_at) / Fold change /veh KIR2DL2 /// KIR2DL4 /// KIR2DL5A /// KIR2DL5B /// KIR2DS1 /// KIR2DS2 /// KIR2DS3 /// KIR2DS4 /// KIR3DL3 /// KIR3DL3 /// KIR3DS1 (11738374_at) / RFU C1QL1 (11718748_at) / Fold change /veh C1QL1 (11718748_at) / RFU TMPRSS4 (11747572_a_at) / Fold change /veh TMPRSS4 (11747572_a_at) / RFU HAMP (11756126_x_at) / Fold change /veh HAMP (11756126_x_at) / RFU RNFT2 (11725882_a_at) / Fold change /veh RNFT2 (11725882_a_at) / RFU NR4A2 (11747474_a_at) / Fold change /veh NR4A2 (11747474_a_at) / RFU ABCC12 (11746883_a_at) / Fold change /veh ABCC12 (11746883_a_at) / RFU TMEM136 (11760407_x_at) / Fold change /veh TMEM136 (11760407_x_at) / RFU CLDN22 /// WWC2 (11732394_at) / Fold change /veh CLDN22 /// WWC2 (11732394_at) / RFU HLA-DPB1 (11760878_x_at) / Fold change /veh HLA-DPB1 (11760878_x_at) / RFU SPINT1 (11716480_a_at) / Fold change /veh SPINT1 (11716480_a_at) / RFU GAP43 (11754022_s_at) / Fold change /veh GAP43 (11754022_s_at) / RFU A4GNT (11735810_at) / Fold change /veh A4GNT (11735810_at) / RFU PRB3 (11715151_x_at) / Fold change /veh PRB3 (11715151_x_at) / RFU TUBB4B (11761932_at) / Fold change /veh TUBB4B (11761932_at) / RFU CAPN14 (11732068_a_at) / Fold change /veh CAPN14 (11732068_a_at) / RFU TMCC2 (11721928_a_at) / Fold change /veh TMCC2 (11721928_a_at) / RFU IRGQ (11745062_a_at) / Fold change /veh IRGQ (11745062_a_at) / RFU FAM174B (11720279_a_at) / Fold change /veh FAM174B (11720279_a_at) / RFU TMPRSS4 (11748680_a_at) / Fold change /veh TMPRSS4 (11748680_a_at) / RFU FAM212B (11763350_a_at) / Fold change /veh FAM212B (11763350_a_at) / RFU PLEKHG5 (11743358_a_at) / Fold change /veh PLEKHG5 (11743358_a_at) / RFU ZSCAN30 (11745921_a_at) / Fold change /veh ZSCAN30 (11745921_a_at) / RFU CMKLR1 (11741424_a_at) / Fold change /veh CMKLR1 (11741424_a_at) / RFU LOC101060620 /// MAPK8IP1 (11723275_at) / Fold change /veh LOC101060620 /// MAPK8IP1 (11723275_at) / RFU SPTSSB (11747773_x_at) / Fold change /veh SPTSSB (11747773_x_at) / RFU PRSS12 (11739890_at) / Fold change /veh PRSS12 (11739890_at) / RFU BIN1 (11741810_x_at) / Fold change /veh BIN1 (11741810_x_at) / RFU WNT11 (11732464_a_at) / Fold change /veh WNT11 (11732464_a_at) / RFU C10orf10 (11716521_a_at) / Fold change /veh C10orf10 (11716521_a_at) / RFU C5orf56 (11738089_at) / Fold change /veh C5orf56 (11738089_at) / RFU CYB561 (11721691_x_at) / Fold change /veh CYB561 (11721691_x_at) / RFU ANKRD19P (11752326_a_at) / Fold change /veh ANKRD19P (11752326_a_at) / RFU OR2T12 /// OR2T33 /// OR2T8 (11738714_s_at) / Fold change /veh OR2T12 /// OR2T33 /// OR2T8 (11738714_s_at) / RFU VCAN (11748164_a_at) / Fold change /veh VCAN (11748164_a_at) / RFU JSRP1 (11732532_at) / Fold change /veh JSRP1 (11732532_at) / RFU KRTAP10-11 (11738290_x_at) / Fold change /veh KRTAP10-11 (11738290_x_at) / RFU MYO3A (11730013_a_at) / Fold change /veh MYO3A (11730013_a_at) / RFU EBF3 (11725865_a_at) / Fold change /veh EBF3 (11725865_a_at) / RFU CAMK2N1 (11719241_x_at) / Fold change /veh CAMK2N1 (11719241_x_at) / RFU C5orf56 (11738088_a_at) / Fold change /veh C5orf56 (11738088_a_at) / RFU OLFML3 (11715873_a_at) / Fold change /veh OLFML3 (11715873_a_at) / RFU LOC100653217 /// NTM (11731650_a_at) / Fold change /veh LOC100653217 /// NTM (11731650_a_at) / RFU MAPK11 (11762145_a_at) / Fold change /veh MAPK11 (11762145_a_at) / RFU FIZ1 (11724087_x_at) / Fold change /veh FIZ1 (11724087_x_at) / RFU OASL (11726364_x_at) / Fold change /veh OASL (11726364_x_at) / RFU SOX15 (11748057_x_at) / Fold change /veh SOX15 (11748057_x_at) / RFU CD79A (11719716_a_at) / Fold change /veh CD79A (11719716_a_at) / RFU HIST1H1D (11736915_at) / Fold change /veh HIST1H1D (11736915_at) / RFU CASKIN2 (11723855_a_at) / Fold change /veh CASKIN2 (11723855_a_at) / RFU LOC730098 (11760151_x_at) / Fold change /veh LOC730098 (11760151_x_at) / RFU OR4N2 (11742367_at) / Fold change /veh OR4N2 (11742367_at) / RFU PRRT2 (11749266_a_at) / Fold change /veh PRRT2 (11749266_a_at) / RFU SNX32 (11753110_a_at) / Fold change /veh SNX32 (11753110_a_at) / RFU CDHR5 (11726645_a_at) / Fold change /veh CDHR5 (11726645_a_at) / RFU RCAN1 (11760418_a_at) / Fold change /veh RCAN1 (11760418_a_at) / RFU FAM167A (11723789_a_at) / Fold change /veh FAM167A (11723789_a_at) / RFU FAM26E (11764081_at) / Fold change /veh FAM26E (11764081_at) / RFU ISYNA1 (11749810_s_at) / Fold change /veh ISYNA1 (11749810_s_at) / RFU ACY1 (11761880_at) / Fold change /veh ACY1 (11761880_at) / RFU 11764098_at / Fold change /veh 11764098_at / RFU SAMD14 (11745864_x_at) / Fold change /veh SAMD14 (11745864_x_at) / RFU NPB (11741838_a_at) / Fold change /veh NPB (11741838_a_at) / RFU TMPRSS6 (11731388_a_at) / Fold change /veh TMPRSS6 (11731388_a_at) / RFU KRTAP10-2 (11738614_at) / Fold change /veh KRTAP10-2 (11738614_at) / RFU ARHGAP8 /// PRR5-ARHGAP8 (11727945_x_at) / Fold change /veh ARHGAP8 /// PRR5-ARHGAP8 (11727945_x_at) / RFU KRTAP5-7 /// NADSYN1 (11734609_at) / Fold change /veh KRTAP5-7 /// NADSYN1 (11734609_at) / RFU RASL12 (11751679_a_at) / Fold change /veh RASL12 (11751679_a_at) / RFU CDKN2B (11736163_a_at) / Fold change /veh CDKN2B (11736163_a_at) / RFU PRF1 (11729649_at) / Fold change /veh PRF1 (11729649_at) / RFU, ZNF638 /// ZNF638-IT1 / Fold change vs veh, ZNF638 /// ZNF638-IT1 / RFU, PANK3 / Fold change vs veh, PANK3 / RFU, SH3YL1 / Fold change vs veh, SH3YL1 / RFU, ZEB2 / Fold change vs veh, ZEB2 / RFU, NRIP1 / Fold change vs veh, NRIP1 / RFU, PTTG1IP / Fold change vs veh, PTTG1IP / RFU, CAPN2 / Fold change vs veh, CAPN2 / RFU, MED14 / Fold change vs veh, MED14 / RFU, SNORA58 / Fold change vs veh, SNORA58 / RFU, C1orf63 / Fold change vs veh, C1orf63 / RFU, LRRFIP1 / Fold change vs veh, LRRFIP1 / RFU, NDUFAF7 / Fold change vs veh, NDUFAF7 / RFU, SLC12A2 / Fold change vs veh, SLC12A2 / RFU, IBTK / Fold change vs veh, IBTK / RFU, ESF1 / Fold change vs veh, ESF1 / Fold change vs veh, TMEM50B / RFU, TAOK1 / Fold change vs veh, TAOK1 / RFU, ACBD3 / Fold change vs veh, ACBD3 / RFU, TMA16 / Fold change vs veh, TMA16 / RFU, RWDD3 / Fold change vs veh, RWDD3 / RFU, BCAT1 / Fold change vs veh, BCAT1 / RFU, EDEM3 / Fold change vs veh, EDEM3 / RFU, TMEM33 / Fold change vs veh, TMEM33 / RFU, WDR75 / Fold change vs veh, WDR75 / RFU, AHCTF1 / Fold change vs veh, AHCTF1 / RFU, TFRC / Fold change vs veh, TFRC / RFU, ZDHHC17 / Fold change vs veh, ZDHHC17 / RFU, NOM1 / Fold change vs veh, NOM1 / RFU, ARL8B / Fold change vs veh, ARL8B / RFU, ZBTB11 / Fold change vs veh, ZBTB11 / RFU, TAMM41 / Fold change vs veh, TAMM41 / RFU, KIAA1704 /// LOC100996395 / Fold change vs veh, KIAA1704 /// LOC100996395 / RFU, ING1 / Fold change vs veh, ING1 / RFU, TRMT61B / Fold change vs veh, TRMT61B / RFU, FUBP3 / Fold change vs veh, FUBP3 / RFU, TP53 / Fold change vs veh, TP53 / RFU, TNKS2 / Fold change vs veh, TNKS2 / RFU, ZFP14 / Fold change vs veh, ZFP14 / RFU, ACTR2 / Fold change vs veh, ACTR2 / RFU, PPP3R1 / Fold change vs veh, PPP3R1 / RFU, PIK3R1 / Fold change vs veh, PIK3R1 / RFU, HNRNPA1 / Fold change vs veh, HNRNPA1 / RFU, RNF170 / Fold change vs veh, RNF170 / RFU, ZNF28 / Fold change vs veh, ZNF28 / RFU, RNGTT / Fold change vs veh, RNGTT / RFU, OGT / Fold change vs veh, OGT / RFU, BRD1 / Fold change vs veh, BRD1 / RFU, MARS / Fold change vs veh, MARS / RFU, ZNF655 / Fold change vs veh, ZNF655 / RFU, FAHD1 / Fold change vs veh, FAHD1 / RFU, BDP1 / Fold change vs veh, BDP1 / RFU, LRRCC1 / Fold change vs veh, LRRCC1 / RFU, ARID1A / Fold change vs veh, ARID1A / RFU, ZNF146 / Fold change vs veh, ZNF146 / RFU, ZNF330 / Fold change vs veh, ZNF330 / RFU, GPN3 / Fold change vs veh, GPN3 / RFU, C9orf123 / Fold change vs veh, C9orf123 / RFU, N4BP2L2 / Fold change vs veh, N4BP2L2 / RFU, ARFIP1 / Fold change vs veh, ARFIP1 / RFU, FAM179B / Fold change vs veh, FAM179B / RFU, BCL10 / Fold change vs veh, BCL10 / RFU, UHRF1BP1L / Fold change vs veh, UHRF1BP1L / RFU, BET1 / Fold change vs veh, BET1 / RFU, CNOT2 / Fold change vs veh, CNOT2 / RFU, ZNF268 / Fold change vs veh, ZNF268 / Fold change vs veh, ZNF507 / RFU, DGCR2 / Fold change vs veh, DGCR2 / RFU, WDSUB1 / Fold change vs veh, WDSUB1 / Fold change vs veh, HSP90B1 /// MIR3652 / RFU, ADSS / Fold change vs veh, ADSS / RFU, GK / Fold change vs veh, GK / RFU, ZNF148 / Fold change vs veh, ZNF148 / RFU, TAF9 / Fold change vs veh, TAF9 / RFU, SLC1A5 / Fold change vs veh, SLC1A5 / RFU, SLMO2 / Fold change vs veh, SLMO2 / RFU, ABCC4 / Fold change vs veh, ABCC4 / RFU, LOC101060439 /// RAP1B / Fold change vs veh, LOC101060439 /// RAP1B / RFU, RFX7 / Fold change vs veh, RFX7 / RFU, GTPBP10 / Fold change vs veh, GTPBP10 / RFU, CNEP1R1 / Fold change vs veh, CNEP1R1 / RFU, BIVM-ERCC5 /// ERCC5 / Fold change vs veh, BIVM-ERCC5 /// ERCC5 / RFU, ILF3 / Fold change vs veh, ILF3 / RFU 11762660_at / Fold change /veh 11762660_at / RFU VCAN (11757783_s_at) / Fold change /veh VCAN (11757783_s_at) / RFU DDX43 (11728927_at) / Fold change /veh DDX43 (11728927_at) / RFU KRT8 (11758188_x_at) / Fold change /veh KRT8 (11758188_x_at) / RFU NKD1 (11759106_at) / Fold change /veh NKD1 (11759106_at) / RFU SRD5A1 (11742802_a_at) / Fold change /veh SRD5A1 (11742802_a_at) / RFU TPSAB1 /// TPSB2 (11721975_s_at) / Fold change /veh TPSAB1 /// TPSB2 (11721975_s_at) / RFU GSTM3 (11746129_a_at) / Fold change /veh GSTM3 (11746129_a_at) / RFU IL23R (11737362_x_at) / Fold change /veh IL23R (11737362_x_at) / RFU TMEM51 (11727254_a_at) / Fold change /veh TMEM51 (11727254_a_at) / RFU PIWIL2 (11732686_x_at) / Fold change /veh PIWIL2 (11732686_x_at) / RFU ORM1 (11744905_x_at) / Fold change /veh ORM1 (11744905_x_at) / RFU CCDC152 (11743942_at) / Fold change /veh CCDC152 (11743942_at) / RFU ECM1 (11717891_a_at) / Fold change /veh ECM1 (11717891_a_at) / RFU IL23R (11748794_a_at) / Fold change /veh IL23R (11748794_a_at) / RFU TNFAIP8L3 (11732012_x_at) / Fold change /veh TNFAIP8L3 (11732012_x_at) / RFU MBOAT4 (11741988_at) / Fold change /veh MBOAT4 (11741988_at) / RFU 11764193_at / Fold change /veh 11764193_at / RFU TMEM53 (11763286_at) / Fold change /veh TMEM53 (11763286_at) / RFU MAGEB2 (11727129_at) / Fold change /veh MAGEB2 (11727129_at) / RFU TMEM200A (11744735_a_at) / Fold change /veh TMEM200A (11744735_a_at) / RFU CCDC152 (11751479_a_at) / Fold change /veh CCDC152 (11751479_a_at) / RFU FAM211A (11726209_a_at) / Fold change /veh FAM211A (11726209_a_at) / RFU RGS16 (11746705_a_at) / Fold change /veh RGS16 (11746705_a_at) / RFU VCAN (11755009_s_at) / Fold change /veh VCAN (11755009_s_at) / RFU RHOB (11743442_s_at) / Fold change /veh RHOB (11743442_s_at) / RFU RGS16 (11720943_a_at) / Fold change /veh RGS16 (11720943_a_at) / RFU RGS16 (11720944_at) / Fold change /veh RGS16 (11720944_at) / RFU, VPS4B / Fold change vs veh, VPS4B / RFU, CREB1 / Fold change vs veh, CREB1 / RFU, DNAJC13 / Fold change vs veh, DNAJC13 / RFU, GNAQ / Fold change vs veh, GNAQ / RFU, CDK5R1 / Fold change vs veh, CDK5R1 / RFU, ZRANB3 / Fold change vs veh, ZRANB3 / RFU, CUL4A / Fold change vs veh, CUL4A / RFU, CCNY / Fold change vs veh, CCNY / RFU, UFL1 / Fold change vs veh, UFL1 / RFU, COG3 / Fold change vs veh, COG3 / RFU, DIAPH2 / Fold change vs veh, DIAPH2 / RFU, SKA2 / Fold change vs veh, SKA2 / RFU, AFF3 / Fold change vs veh, AFF3 / RFU, LMF1 / Fold change vs veh, LMF1 / RFU, IPO11 / Fold change vs veh, IPO11 / RFU, DFFB / Fold change vs veh, DFFB / RFU, FOXP1 / Fold change vs veh, FOXP1 / RFU, CARD8 / Fold change vs veh, CARD8 / RFU, STRN3 / Fold change vs veh, STRN3 / RFU, ADK / Fold change vs veh, ADK / RFU, RASSF2 / Fold change vs veh, RASSF2 / RFU, WIPF1 / Fold change vs veh, WIPF1 / RFU, LARP1B / Fold change vs veh, LARP1B / RFU, RASA1 / Fold change vs veh, RASA1 / RFU, RB1 / Fold change vs veh, RB1 / RFU, PPFIA1 / Fold change vs veh, PPFIA1 / RFU, MAT2A / Fold change vs veh, MAT2A / RFU, CCT5 / Fold change vs veh, CCT5 / RFU, WDR92 / Fold change vs veh, WDR92 / RFU, CUX1 / Fold change vs veh, CUX1 / RFU, TTC7A / Fold change vs veh, TTC7A / RFU, TMEM135 / Fold change vs veh, TMEM135 / RFU, DEPTOR / Fold change vs veh, DEPTOR / RFU, CPM / Fold change vs veh, CPM / RFU, DNAJB6 / Fold change vs veh, DNAJB6 / RFU, CACNA2D3 / Fold change vs veh, CACNA2D3 / RFU, DTX4 / Fold change vs veh, DTX4 / RFU, TFCP2 / Fold change vs veh, TFCP2 / RFU, GMCL1 /// GMCL1P1 / Fold change vs veh, GMCL1 /// GMCL1P1 / RFU, AEBP2 / Fold change vs veh, AEBP2 / RFU, SNHG1 /// SNORD22 /// SNORD25 /// SNORD26 /// SNORD27 /// SNORD28 /// SNORD29 /// SNORD31 / Fold change vs veh, SNHG1 /// SNORD22 /// SNORD25 /// SNORD26 /// SNORD27 /// SNORD28 /// SNORD29 /// SNORD31 / Fold change (Aza/veh), C12orf56 (ProbeSet 11735607_a_at) / Fold change (ACY-1035/veh), C12orf56 (ProbeSet 11735607_a_at) / Fold change (Aza/veh), FGFR1OP (ProbeSet 11751329_s_at) / Fold change (ACY-1035/veh), FGFR1OP (ProbeSet 11751329_s_at) / Fold change (Aza/veh), VPS36 (ProbeSet 11739960_a_at) / Fold change (ACY-1035/veh), VPS36 (ProbeSet 11739960_a_at) / RFU SYPL1 (11715823_x_at) / Fold change /veh SYPL1 (11715823_x_at) / RFU IGFBP7 (11715501_s_at) / Fold change /veh IGFBP7 (11715501_s_at) / RFU REEP3 (11722064_at) / Fold change /veh REEP3 (11722064_at) / RFU IGLL1 (11728026_x_at) / Fold change /veh IGLL1 (11728026_x_at): dose or concentration left out as unconfirmed
# Details: ProbeSet 11724763_s_at; LIST D
smiles,measurement,value
Nc1ncn([C@@H]2O[C@H](CO)[C@@H](O)[C@H]2O)c(=O)n1 [azacitidine],"RFU, DEPTOR",80.20 RFU
